Reference: doi:10.1101/670703v1 (biorxiv, 2019)

How the values were obtained:
[1] = target: T1, RelTt^NTD (Thermus thermophilus, UniProt Q5SHL3); assay: isothermal titration calorimetry; type: binding
T1 sequence (Q5SHL3 1-355): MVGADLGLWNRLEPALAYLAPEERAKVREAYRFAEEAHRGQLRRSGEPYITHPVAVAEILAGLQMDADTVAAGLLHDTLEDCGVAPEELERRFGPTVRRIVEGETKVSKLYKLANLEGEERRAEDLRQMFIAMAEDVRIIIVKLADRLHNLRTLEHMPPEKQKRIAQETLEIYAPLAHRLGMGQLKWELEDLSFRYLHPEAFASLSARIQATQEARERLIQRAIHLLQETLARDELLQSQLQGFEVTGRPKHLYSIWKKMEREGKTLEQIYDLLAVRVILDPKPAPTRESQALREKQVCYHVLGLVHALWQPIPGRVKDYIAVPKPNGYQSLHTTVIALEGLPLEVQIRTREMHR

[2] = target: T2, RelTt (Thermus thermophilus, UniProt Q5SHL3); assay: ppGpp synthetase activity; type: biochemical; details: enzyme alone (also with 70S IC and deacylated tRNAVal)
T2 sequence (Q5SHL3 1-727): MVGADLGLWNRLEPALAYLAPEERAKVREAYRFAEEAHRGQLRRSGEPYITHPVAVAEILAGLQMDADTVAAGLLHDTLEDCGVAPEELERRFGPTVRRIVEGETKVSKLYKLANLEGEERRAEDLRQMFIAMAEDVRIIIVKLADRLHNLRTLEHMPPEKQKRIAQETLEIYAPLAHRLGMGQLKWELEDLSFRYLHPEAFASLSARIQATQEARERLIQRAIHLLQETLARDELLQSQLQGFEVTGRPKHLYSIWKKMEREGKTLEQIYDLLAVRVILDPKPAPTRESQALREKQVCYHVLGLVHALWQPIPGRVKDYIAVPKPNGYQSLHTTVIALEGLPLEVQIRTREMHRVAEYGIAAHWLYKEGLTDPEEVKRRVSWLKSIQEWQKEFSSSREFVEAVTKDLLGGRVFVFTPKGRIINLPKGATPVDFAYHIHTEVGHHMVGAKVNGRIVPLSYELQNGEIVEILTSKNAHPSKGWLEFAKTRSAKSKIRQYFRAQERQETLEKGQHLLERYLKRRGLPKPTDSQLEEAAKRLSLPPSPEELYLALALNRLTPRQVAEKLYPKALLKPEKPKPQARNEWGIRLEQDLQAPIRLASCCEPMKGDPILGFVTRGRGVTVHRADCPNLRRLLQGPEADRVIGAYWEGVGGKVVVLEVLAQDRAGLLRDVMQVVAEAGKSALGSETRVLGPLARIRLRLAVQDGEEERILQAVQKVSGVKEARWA

SMILES | Kd [1] [µM] | ppGpp synthetase activity [2]
Nc1ncnc2c1ncn2[C@@H]1O[C@H](COP(=O)(O)CP(=O)(O)OP(=O)(O)O)[C@@H](O)[C@H]1O [APCPP] | ~50 | 
Nc1nc2c(ncn2[C@@H]2O[C@H](COP(=O)(O)OP(=O)(O)O)[C@@H](OP(=O)(O)OP(=O)(O)O)[C@H]2O)c(=O)[nH]1 [ppGpp] |  | ppGpp synthetase activity of RelTt
